Our source for the IC50 and IC (total growth inhibition) values is patent US8975417B2, “Pyrazolopyrrolidine derivatives and their use in the treatment of disease” (Novartis AG, priority 2013, dated 2015).

Assay [1] has as its target His-Brd3(20-477) (Homo sapiens (Human), UniProt Q15059). Briefly: TR-FRET in-vitro binding assay for BRD3. Particulars: biochemical. A digest of the protocol:
(§1)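 Eight-point dilution series tested against in-house His-BRD2(60-472), BRD3(20-477) or BRD4(44-477) (45 nM in dispensed solution) binding acetyl-histone H4 (AcK5,8,12,16; 60 nM in dispensed solution). Incubation 35 min at 30 °C, pH 7.5 HEPES buffer; detection by TR-FRET using Eu-anti-His6 and streptavidin-allophycocyanin.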
For orientation: TR-FRET usually uses a lanthanide donor and a delayed reading to cut background.

Assay [2] concerns THP-1 cells. Briefly: Cell growth inhibition assay (CellTiter-Glo), THP-1. Particulars: Homo sapiens, read-out: THP-1 TGI. The class given is cell-based. The procedure, abridged: (§2)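 CellTiter-Glo ATP luminescence after compound exposure at 37° C., 5% CO2; 3-fold serial dilutions from 10 μM, 0.1% DMSO vehicle. Readings background- and day 0-corrected, vehicle = 100%, medium = −100%. IC50 and total growth inhibition (TGI) from four-parameter fits.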
Background: ATP-based viability assays read luminescence as a measure of living cells.

For assay [3], the target named is nuclear BRD4-NUT foci in HCC2494 NUT midline carcinoma cells (Homo sapiens (Human), UniProt O60885+Q86Y26). The experiment in a line: Nut-foci formation assay. The class given is cell-based. Particulars: 24 hours, read-out: HCS Brd4-NUT IC50. On the procedure: HCC2494 NUT midline carcinoma cells (expressing BRD4-NUT-fusion) were obtained from the University of Texas Southwestern and cultured in RPMI-1640 medium containing 10% Foetal Calf Serum at 37° C. in a humidified 5% CO2 incubator.
Compound-mediated inhibition of BRD4 activity was monitored by quantification of the number and intensity of nuclear BRD4-NUT foci using automated immunofluorescence microscopy. Briefly, 5000 cells in 20 μL fresh medium were seeded into Poly-D-Lysine-precoated 384-well plates and incubated overnight at 37° C. and 5% CO2, followed by addition of 5 μl medium containing compound dilutions at 5-fold their final intended concentration. Dose-response effects were assessed by 3-fold serial dilutions of the test compound, starting at 10 μM. Following incubation of the cells for 24 hours at 37° C. and 5% CO2, the cells were fixed by incubation with 3.7% formaldehyde for 10 min, followed by immunofluorescence staining using rabbit anti-NUT (Cell Signaling Technologies, Cat#3625) as primary, and AlexaFluor488-labeled goat anti-rabbit (Invitrogen, Cat#A11008) as secondary antibody (latter complemented with 1 μg/mL Hoechst33342 as DNA dye). Assay plates were imaged using the appropriate filter sets on the Cellomics VTi automated fluorescence microscopy platform (ThermoFisher Scientific) and the population average of the number of NUT-foci per nucleus is quantified using the Cellomics Spot Detection BioApplication image analysis algorithm (ThermoFisher Scientific). The effect of a particular test compound concentration on NUT-foci number and intensity is expressed as percentage of the value obtained for cells treated with vehicle only (DMSO, 0.1% final concentration), which was set as 100. Compound concentrations leading to half-maximal (IC50) inhibition of the aforementioned readout parameters were determined using standard four parameter curve fitting.

Assay [4] concerns the target His-Brd4(44-477) (Homo sapiens (Human), UniProt O60885). Briefly: TR-FRET in-vitro binding assay for BRD4. Particulars: biochemical. The procedure, abridged:
as §1

Assay [5] deals with K-562 cells. The experiment in a line: Cell growth inhibition assay (CellTiter-Glo), K-562. The format is cell-based, human. To be noted: Homo sapiens, K562, read-out: K-562 TGI. A digest of the protocol: as §2
Assay [6] has as its target His-Brd2(60-472) (Homo sapiens (Human), UniProt P25440). Briefly: TR-FRET in-vitro binding assay for BRD2. Particulars: biochemical. The procedure, abridged:
as §1

In assay [7] the test system is MV-4-11 cells. Briefly: Cell growth inhibition assay (CellTiter-Glo), MV-4-11. The format is cell-based. Particulars: Homo sapiens, MV4-11, read-out: MV-4-11 TGI. A digest of the protocol: as §2

SMILES strings stand for the structures. Bounds are passed on as bounds.

His-Brd3(20-477), sequence (Q15059 20-477): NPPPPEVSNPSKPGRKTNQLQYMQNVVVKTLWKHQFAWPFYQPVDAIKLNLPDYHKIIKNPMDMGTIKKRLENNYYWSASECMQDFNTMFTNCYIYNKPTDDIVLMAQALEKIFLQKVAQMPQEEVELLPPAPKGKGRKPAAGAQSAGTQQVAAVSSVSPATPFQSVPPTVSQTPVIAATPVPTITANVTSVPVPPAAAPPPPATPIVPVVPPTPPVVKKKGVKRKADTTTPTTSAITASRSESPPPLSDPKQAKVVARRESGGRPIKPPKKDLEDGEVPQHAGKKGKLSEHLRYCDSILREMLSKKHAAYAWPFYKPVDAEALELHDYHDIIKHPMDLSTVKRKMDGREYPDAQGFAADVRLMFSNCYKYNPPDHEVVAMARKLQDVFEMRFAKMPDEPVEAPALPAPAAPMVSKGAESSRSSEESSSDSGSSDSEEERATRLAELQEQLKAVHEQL
His-Brd2(60-472), sequence (P25440 60-472): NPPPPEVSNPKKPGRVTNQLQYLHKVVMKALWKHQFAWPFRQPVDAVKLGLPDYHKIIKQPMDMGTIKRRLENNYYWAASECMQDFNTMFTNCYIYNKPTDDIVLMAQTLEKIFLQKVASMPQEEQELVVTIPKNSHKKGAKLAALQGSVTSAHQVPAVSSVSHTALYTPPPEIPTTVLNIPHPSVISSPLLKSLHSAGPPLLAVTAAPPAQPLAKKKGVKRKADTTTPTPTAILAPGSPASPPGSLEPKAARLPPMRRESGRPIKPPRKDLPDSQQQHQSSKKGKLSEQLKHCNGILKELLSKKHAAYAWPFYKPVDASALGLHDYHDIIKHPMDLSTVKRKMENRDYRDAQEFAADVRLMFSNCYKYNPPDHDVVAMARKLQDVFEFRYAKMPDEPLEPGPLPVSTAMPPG

A word on the IC50: it is the point on the concentration scale where inhibition reaches its midpoint. Regarding `CNC(=O)n1nc2c(c1C)C(c1ccc(Cl)cc1)N(c1cc(C)c(=O)n(C)c1)C2=O` (stereo not drawn) [Example 144, 4-(4-chlorophenyl)-5-(1,5-dimethyl-6-oxo-1,6-dihydropyridin-3-yl)-N,3-dimethyl-6-oxo-5,6-dihydropyrrolo[3,4-c]pyrazole-2(4H)-carboxamide], the IC50 in assay [1] came out at 140 nM; in assay [3], 134 nM; in assay [4] it was 150 nM; in assay [6], 160 nM. For the same compound, the IC (total growth inhibition) in assay [2] is 0.361 µM; in assay [5], over 10 µM; in assay [7], 0.107 µM.
`CCc1nn(C(=O)N(C)C)c2c1C(c1ccc(Cl)cc1)N(c1cc(C)c(=O)n(C)c1)C2=O` (stereo not drawn) [Example 147, 4-(4-chlorophenyl)-5-(1,5-dimethyl-6-oxo-1,6-dihydropyridin-3-yl)-3-ethyl-N,N-dimethyl-6-oxo-5,6-dihydropyrrolo[3,4-c]pyrazole-1(4H)-carboxamide]: the IC50 in assay [1] came out at 120 nM; in assay [3] it was 73.1 nM; in assay [4], 130 nM; in assay [6], 140 nM. Moreover, the figures for the IC (total growth inhibition) in assay [2], in assay [5] and in assay [7] were 0.365 µM, over 10 µM and 0.1 µM, respectively.
On to `Cc1cc(N2C(=O)c3nn(C4CN(C)C4)c(C)c3C2c2ccc(Cl)cc2)cn(C)c1=O` (stereo not drawn) [Example 139, 4-(4-chlorophenyl)-5-(1,5-dimethyl-6-oxo-1,6-dihydropyridin-3-yl)-3-methyl-2-(1-methylazetidin-3-yl)-4,5-dihydropyrrolo[3,4-c]pyrazol-6(2H)-one], for which the IC50 in assay [1] was determined as 120 nM; in assay [3] it was 366 nM; in assay [4], 190 nM; in assay [6], 160 nM. For the same compound, the figures for the IC (total growth inhibition) in assay [2], in assay [5] and in assay [7] were 0.399 µM, over 10 µM and 0.107 µM, respectively.
As for `Cc1cc(N2C(=O)c3nn(C4COC4)c(C)c3C2c2ccc(Cl)cc2)cn(C)c1=O` (stereo not drawn) [Example 134, 4-(4-chlorophenyl)-5-(1,5-dimethyl-6-oxo-1,6-dihydropyridin-3-yl)-3-methyl-2-(oxetan-3-yl)-4,5-dihydropyrrolo[3,4-c]pyrazol-6(2H)-one], the IC50 in assay [1] amounted to 130 nM; in assay [3], 92.2 nM; in assay [4] it was 160 nM; in assay [6], 190 nM. In addition, the IC (total growth inhibition) is 0.291 µM in assay [2], over 10 µM in assay [5] and 0.187 µM in assay [7].
For `CNC(=O)n1nc2c(c1C)C(c1ccc(Cl)cc1)N(c1cc(C)c3nnc(C)n3c1)C2=O` (stereo not drawn) [Example 146, 4-(4-chlorophenyl)-5-(3,8-dimethyl-[1,2,4]triazolo[4,3-a]pyridin-6-yl)-N,3-dimethyl-6-oxo-5,6-dihydropyrrolo[3,4-c]pyrazole-2(4H)-carboxamide], the IC50 in assay [1] stood at 200 nM; in assay [3] it was 91 nM; in assay [4], 150 nM; in assay [6], 190 nM. Besides, the figures for the IC (total growth inhibition) in assay [2], in assay [5] and in assay [7] were 0.283 µM, over 10 µM and 0.0546 µM, respectively.
For `Cc1c2c(nn1C1CC1)C(=O)N(c1cc(Cl)c(=O)n(C)c1)[C@@H]2c1ccc(Cl)cc1` [Example 19, (R)-5-(5-chloro-1-methyl-6-oxo-1,6-dihydropyridin-3-yl)-4-(4-chlorophenyl)-2-cyclopropyl-3-methyl-4,5-dihydropyrrolo[3,4-c]pyrazol-6(2H)-one], the IC50 in assay [1] is 65 nM; in assay [3], 118 nM; in assay [4], 73 nM; in assay [6] it was 78 nM. For the same compound, the IC (total growth inhibition) in assay [2] was 0.125 µM; in assay [5] it was over 10 µM; in assay [7] it was 0.043 µM.
